Assay results as given in the NIST ThermoML archive (doi:10.1021/je100605v).

Details: Liquid, Closed cell (Static) method

CCO[Si](CC)(OCC)OCC [ethyltriethoxysilane]
Details	vapor or sublimation pressure [kPa]
335 K	2.325
340.8 K	3.325
346.2 K	4.325
350.4 K	5.325
359.9 K	8.325
367.1 K	11.32
372.9 K	14.32
377.7 K	17.32
382 K	20.32
385.8 K	23.32
389 K	26.33
392 K	29.32
394.8 K	32.33
397.4 K	35.33
399.9 K	38.32
402.2 K	41.33
404.1 K	44.33
405.5 K	47.32
407.6 K	50.33
410.1 K	53.32
411.9 K	56.33
413.7 K	59.33
415.4 K	62.32
416.8 K	65.32
418.3 K	68.33
419.4 K	71.33
420.6 K	74.33
421.8 K	77.33
423.7 K	80.32
425.4 K	83.33
426.7 K	86.33
427.9 K	89.33
429.1 K	92.33
430.2 K	95.32
431.3 K	98.32
432 K	100.33
